Laboratory results as given in ChEMBL document CHEMBL5260859, “Discovery and structure-activity relationship study of 2-piperazinyl-benzothiazole derivatives as potent and selective PPARδ agonists” (Bioorg Med Chem, 2023).

Tests used:
[1] = target: T1, Peroxisome proliferator-activated receptor delta (Mus musculus) (UniProt P35396); test: Agonist activity at Gal4-fused mouse PPAR-delta ligand binding domain expressed in CHO-K1 cells assessed as receptor transactivation incubated for 24 to 48 hrs by luciferase reporter gene assay relative to control; assay type: cell-based; details: time lower 24.0 hrs, time upper […]
T1 sequence (whole entry): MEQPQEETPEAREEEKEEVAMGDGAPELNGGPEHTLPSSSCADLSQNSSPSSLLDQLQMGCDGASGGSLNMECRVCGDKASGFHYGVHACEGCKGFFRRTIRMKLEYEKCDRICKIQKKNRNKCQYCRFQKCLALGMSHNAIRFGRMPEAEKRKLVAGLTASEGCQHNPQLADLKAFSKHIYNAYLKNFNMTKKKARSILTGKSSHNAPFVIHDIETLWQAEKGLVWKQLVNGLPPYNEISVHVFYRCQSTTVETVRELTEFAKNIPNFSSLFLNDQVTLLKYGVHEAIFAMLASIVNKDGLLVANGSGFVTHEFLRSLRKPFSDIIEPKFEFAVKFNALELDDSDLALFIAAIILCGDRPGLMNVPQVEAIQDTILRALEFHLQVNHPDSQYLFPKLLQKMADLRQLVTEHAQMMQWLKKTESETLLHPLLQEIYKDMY

[2] = target: T2, Peroxisome proliferator-activated receptor alpha (Mus musculus) (UniProt P23204); test: Agonist activity at Gal4-fused mouse PPAR-alpha ligand binding domain expressed in CHO-K1 cells assessed as receptor transactivation incubated for 24 to 48 hrs by luciferase reporter gene assay relative to control; assay type: cell-based; details: time lower 24.0 hrs, time upper […]
T2 sequence (whole entry): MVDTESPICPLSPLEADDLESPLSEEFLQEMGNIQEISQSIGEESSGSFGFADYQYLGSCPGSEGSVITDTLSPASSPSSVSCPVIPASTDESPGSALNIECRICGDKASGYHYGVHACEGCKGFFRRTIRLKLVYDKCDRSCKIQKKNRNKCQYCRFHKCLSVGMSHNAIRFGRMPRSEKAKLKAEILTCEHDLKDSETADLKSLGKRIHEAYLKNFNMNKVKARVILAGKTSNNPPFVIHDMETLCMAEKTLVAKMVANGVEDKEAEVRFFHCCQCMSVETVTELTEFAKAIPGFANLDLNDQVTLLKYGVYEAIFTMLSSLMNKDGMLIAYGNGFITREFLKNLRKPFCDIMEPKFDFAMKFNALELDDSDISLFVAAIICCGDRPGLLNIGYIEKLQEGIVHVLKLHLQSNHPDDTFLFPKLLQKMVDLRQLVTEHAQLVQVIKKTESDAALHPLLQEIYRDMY

[3] = target: T3, Peroxisome proliferator-activated receptor alpha (Mus musculus, UniProt P23204); test: Agonist activity at Gal4-fused mouse PPAR-alpha ligand binding domain expressed in CHO-K1 cells assessed as receptor transactivation incubated for 24 to 48 hrs by luciferase reporter gene assay; assay type: cell-based
T3 sequence (P23204 whole entry): T2 sequence (whole entry)

[4] = target: T4, Peroxisome proliferator-activated receptor gamma (Mus musculus, UniProt P37238); test: Agonist activity at Gal4-fused mouse PPAR-gamma ligand binding domain expressed in CHO-K1 cells assessed as receptor transactivation incubated for 24 to 48 hrs by luciferase reporter gene assay; assay type: cell-based
T4 sequence (P37238 whole entry): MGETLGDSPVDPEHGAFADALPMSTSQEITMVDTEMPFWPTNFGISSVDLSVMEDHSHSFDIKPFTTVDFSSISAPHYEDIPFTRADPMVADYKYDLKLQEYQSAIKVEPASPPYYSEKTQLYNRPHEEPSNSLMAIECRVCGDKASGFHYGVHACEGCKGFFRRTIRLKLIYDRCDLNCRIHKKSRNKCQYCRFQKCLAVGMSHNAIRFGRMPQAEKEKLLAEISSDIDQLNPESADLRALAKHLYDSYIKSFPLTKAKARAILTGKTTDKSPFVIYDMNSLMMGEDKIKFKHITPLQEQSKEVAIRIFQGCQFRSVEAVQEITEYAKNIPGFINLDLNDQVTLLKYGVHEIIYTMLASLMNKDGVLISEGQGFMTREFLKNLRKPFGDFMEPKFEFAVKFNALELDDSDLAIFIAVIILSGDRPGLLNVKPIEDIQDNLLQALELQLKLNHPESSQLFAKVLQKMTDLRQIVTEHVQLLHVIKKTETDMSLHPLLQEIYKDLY

[5] = target: T5, Peroxisome proliferator-activated receptor delta (Mus musculus, UniProt P35396); test: Agonist activity at Gal4-fused mouse PPAR-delta ligand binding domain expressed in CHO-K1 cells assessed as receptor transactivation incubated for 24 to 48 hrs by luciferase reporter gene assay; assay type: cell-based
T5 sequence (P35396 whole entry): T1 sequence (whole entry)

[6] = target: T6, Peroxisome proliferator-activated receptor delta (Homo sapiens, UniProt Q03181); test: Agonist activity at Gal4-fused human PPAR-delta ligand binding domain expressed in CHO-K1 cells assessed as receptor transactivation incubated for 24 to 48 hrs by luciferase reporter gene assay; assay type: cell-based
T6 sequence (Q03181 whole entry): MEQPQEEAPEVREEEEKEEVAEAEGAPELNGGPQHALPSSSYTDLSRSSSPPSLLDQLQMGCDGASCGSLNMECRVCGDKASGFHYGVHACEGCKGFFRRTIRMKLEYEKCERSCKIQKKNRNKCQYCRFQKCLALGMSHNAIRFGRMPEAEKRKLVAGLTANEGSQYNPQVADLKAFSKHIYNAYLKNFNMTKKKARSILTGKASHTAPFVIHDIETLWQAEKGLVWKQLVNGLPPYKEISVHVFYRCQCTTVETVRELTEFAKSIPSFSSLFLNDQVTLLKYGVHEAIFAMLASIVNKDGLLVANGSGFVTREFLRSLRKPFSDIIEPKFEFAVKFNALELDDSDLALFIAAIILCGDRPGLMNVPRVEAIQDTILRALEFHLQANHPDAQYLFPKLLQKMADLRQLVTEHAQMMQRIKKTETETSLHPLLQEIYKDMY

[7] = target: T7, Peroxisome proliferator-activated receptor delta (Homo sapiens) (UniProt Q03181); test: Agonist activity at Gal4-fused human PPAR-delta ligand binding domain expressed in CHO-K1 cells assessed as receptor transactivation incubated for 24 to 48 hrs by luciferase reporter gene assay relative to control; assay type: cell-based; details: time lower 24.0 hrs, time upper […]
T7 sequence (whole entry): T6 sequence (Q03181 whole entry)

Mus musculus [8] = test: Antihypercholesterolemic activity against hApoB100/hCETP-dTg hypercholesterolemic mouse model assessed as serum HDL-C level at 3 mg/kg, po administered once daily for 8 days; assay type: functional; details: time 8 day
Mus musculus [9] = test: Antihypercholesterolemic activity against hApoB100/hCETP-dTg hypercholesterolemic mouse model assessed as serum non-HDL-C level at 3 mg/kg, po administered once daily for 8 days; assay type: functional; details: time 8 day
[10] = target: T8, Peroxisome proliferator-activated receptor alpha (Homo sapiens) (UniProt Q07869); test: Agonist activity at Gal4-fused human PPAR-alpha ligand binding domain expressed in CHO-K1 cells assessed as receptor transactivation incubated for 24 to 48 hrs by luciferase reporter gene assay relative to control; assay type: cell-based; details: time lower 24.0 hrs, time upper […]
T8 sequence (whole entry): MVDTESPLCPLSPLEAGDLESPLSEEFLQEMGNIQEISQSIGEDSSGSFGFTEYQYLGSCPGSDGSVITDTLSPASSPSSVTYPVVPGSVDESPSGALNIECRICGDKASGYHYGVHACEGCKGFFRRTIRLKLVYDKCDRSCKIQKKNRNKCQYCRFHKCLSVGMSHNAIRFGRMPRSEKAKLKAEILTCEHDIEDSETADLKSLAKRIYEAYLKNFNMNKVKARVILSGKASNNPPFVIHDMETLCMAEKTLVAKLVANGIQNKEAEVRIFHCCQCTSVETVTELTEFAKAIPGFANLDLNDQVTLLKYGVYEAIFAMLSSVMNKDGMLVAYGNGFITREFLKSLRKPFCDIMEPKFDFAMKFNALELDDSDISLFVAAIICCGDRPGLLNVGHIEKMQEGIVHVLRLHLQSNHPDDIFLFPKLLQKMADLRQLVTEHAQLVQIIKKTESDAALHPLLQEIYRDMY

Emax [1]	Emax [2]	EC50 [3]	EC50 [4]	EC50 [5]	EC50 [6]	Emax [7]	Emax [10]	Compound	Activity (Mus musculus [8])	Activity (Mus musculus [9])
30.8%	9.1%	3.8 µM	670 nM					CC[C@H]1CN(Cc2cc(C)cc(CC(=O)O)c2)CCN1c1nc2ccc(C(F)(F)F)cc2s1		
27.9%	16.7%	13 µM	150 nM	27 nM	17 nM	23.9%		C[C@H]1CN(CCOc2cc(CC(=O)O)ccc2Cl)CCN1c1nc2ccc(Cl)cc2s1		
25.3%				110 nM	33 nM	14.4%		Cc1ccc(CC(=O)O)cc1OCCN1CCN(c2nc3ccc(Cl)cc3s2)CC1		
22.1%	19%	8 µM		34 nM	9.9 nM	15.5%		Cc1cc(CC(=O)O)cc(CN2CCN(c3nc4ccc(C(F)(F)F)cc4s3)C[C@H]2C)c1		
23.2%	8.3%	7.1 µM		12 nM	5 nM	15.5%		C[C@H]1CN(c2nc3ccc(Cl)cc3s2)CCN1CCOc1cc(CC(=O)O)ccc1Cl		
21.7%	6.9%	4.9 µM	500 nM	25 nM				Cc1ccc(CC(=O)O)cc1OCCN1CCN(c2nc3ccc(Cl)cc3s2)C[C@@H]1C		
33.1%	2.8%	8.5 µM	40 nM					CC[C@@H]1CN(Cc2cc(C)cc(CC(=O)O)c2)CCN1c1nc2ccc(C(F)(F)F)cc2s1		
								Cc1cc(SCc2sc(-c3ccc(C(F)(F)F)cc3)nc2C)ccc1OCC(=O)O [GW501516]	141%	67%
27.6%	12.5%	3.9 µM	4.1 nM	46 nM	7.9 nM	21.9%		C[C@@H]1CN(CCOc2cc(CC(=O)O)ccc2Cl)CCN1c1nc2ccc(Cl)cc2s1		
22.1%	1.1%			28 nM	6.9 nM	19.5%		Cc1cc(CC(=O)O)cc(CN2CCN(c3nc4ccc(C(F)(F)F)cc4s3)C[C@@H]2C)c1		
14.6%	1.3%		230 nM	7.5 nM	3.7 nM	13.1%		Cc1cc(CC(=O)O)cc(CN2CCN(c3nc4ccc(C(F)(F)F)cc4s3)[C@H](C(C)C)C2)c1		
31.3%	6.1%	3.4 µM	390 nM	5.8 nM				CC[C@H]1CN(c2nc3ccc(Cl)cc3s2)CCC1CCOc1cc(CC(=O)O)ccc1Cl (some centres not stated)		
28.3%	21%	3.2 µM		47 nM	16 nM	19.8%		C[C@@H]1CN(c2nc3ccc(Cl)cc3s2)CCN1CCOc1cc(CC(=O)O)ccc1Cl		
19%	6.6%	3 µM	3300 nM					Cc1cc(CC(=O)O)cc(CN2CCN(c3nc4ccc(C(F)(F)F)cc4s3)CC2)c1		
28.7%	14.2%	3.6 µM	1000 nM	47 nM			3%	CC1CN(c2nc3ccc(Cl)cc3s2)CCC1CCOc1cc(CC(=O)O)ccc1Cl (configuration not stated)		
